Test results as given in patent US20250290117A1, “MOLECULAR PHENOTYPIC ANTIMICROBIAL SUSCEPTIBILITY TESTING” (priority 2024, published 2025).

Legend:
[1] = test system: P. aeruginosa; experiment: Traditional culture-based antimicrobial susceptibility test; format: cell-based, Pseudomonas aeruginosa; conditions: P. aeruginosa isolate MRSN1938
Procedure: (§1) Table 5 illustrates the results of an example antimicrobial agent susceptibility test of the current application versus a traditional culture-based antimicrobial agent susceptibility test for multiple specimens with different pathogens, in accordance with one or more embodiments of the disclosure. These specimens were tested with direct PCR (e.g., no extraction DNA purification step prior to PCR). As in Tables 1, 2, and 3, the results of the test of the current application are similar to the results from the traditional test.
(§2) Result Reporting to Healthcare Providers. The results from the antimicrobial exposure are reported to the ordering healthcare provider. This information can be utilized by the healthcare provider when selecting an antimicrobial regimen for their individual patient based on these individual specimen results and patient specific factors. […] The current standard of care for antimicrobial susceptibility testing involves the growth, isolation, and exposure of pathogens to antimicrobials. This traditional culture and sensitivity process can take multiple days to obtain results, limiting the ability of healthcare providers to receive timely results to make actionable changes in patient care or management. Healthcare providers desire a method to obtain antimicrobial susceptibility results with quicker turn-around-time. This application discloses a molecular-based phenotypic antimicrobial susceptibility method which involves pathogen exposure to a panel of antimicrobial agents at their specified minimum inhibitory concentration breakpoints for sensitivity. This method allows for more timely antimicrobial susceptibility results.

[2] = test system: Staphylococcus epidermidis; experiment: as above; format: cell-based
From the text: as §2, with “Table 1 illustrates the results of an example antimicrobial agent susceptibility test of the current application versus a traditional culture-based antimicrobial agent susceptibility test for Staphylococcus epidermidis. This specimen underwent extraction or DNA purification prior to PCR. The results of the test of the current application are similar to the results from the traditional test, with the results from the test of the current application being reportable considerably earlier than the test of the traditional test due no pathogen isolation requirement and due to less incubation time being required for the test of the current application. Result” for “Result”

[3] = test system: S. aureus; experiment: as above; format: cell-based, Staphylococcus aureus; conditions: S. aureus isolate NR-46412 HIP13170
Procedure: as §1, §2

[4] = test system: S. aureus; experiment: Molecular phenotypic antimicrobial susceptibility test with direct PCR (no extraction DNA purification step); format: cell-based, Staphylococcus aureus; conditions: for Ct at Sensitive Breakpoint: S. aureus isolate NR-46412 HIP13170, Ct at control (average) 18.824; for Molecular Antimicrobial Susceptibility Result: S. aureus isolate NR-46412 HIP13170, at sensitive breakpoint
Procedure: Detection of Molecular Phenotypic Antimicrobial Susceptibility. Disclosed herein are the methods for the detection of phenotypic antimicrobial susceptibility via molecular methods. The present invention describes how a specimen 100 with a known microbial load is incubated and then exposed to a panel of antimicrobial agents to determine sensitivity (prevention of growth) or resistance (allowance of growth) to the specific antimicrobial agents tested utilizing molecular methods.
Sample Collection. Specimens 100 are collected from patients using sterile collection processes that are employed in routine clinical care. Specimens are transported to the testing facility in boric acid preservative.
Preparation of the Specimens for Testing. […] The process for pathogen isolation includes steps of harvesting the pathogen (e.g., via centrifugation), isolating pathogen DNA via a DNA isolation and/or purification kit, and performing PCR on the pathogen DNA via PCR components (e.g., primers, enzymes, buffers) as would be known to the skilled artisan. […] This aliquot is used for antimicrobial susceptibility testing if indicated based on the pathogen detection results. […] Specimens 100 with lower pathogen loads could also be utilized in the antibiotic susceptibility phase of testing with or without a longer incubation period.
Preparation of Antimicrobial Susceptibility Testing Plates. Antimicrobial solutions are prepared at known concentrations. The specific antimicrobials and their concentrations are selected based on the pathogen of interest and the described antimicrobial resistance breakpoints for that specimen pathogen and antimicrobial combination. These antimicrobials have been selected based on those commonly utilized by healthcare providers in routine clinical care for the specific type of suspected infection. The number and types of antimicrobials utilized can be customized based on the infection source, pathogen detected, patient-specific factors such as allergies or other health conditions (e.g., chronic kidney disease or concurrent medication use), or healthcare provider preferences such as antimicrobial availability or cost.
The antimicrobial solutions are prepared in liquid culture media (such as Muller Hinton Broth) to achieve the desired antimicrobial concentration and are then stored at −80° C. until use. For a given specimen, each antimicrobial is tested at a single or multiple antimicrobial concentration(s) which is its established breakpoints for sensitivity. The antimicrobial solutions are prepared and plated out for each specific pathogen. […] This allows for evaluation of pathogen load when no antimicrobial is present.
Specimen Exposure to Antimicrobial Agents. The 1 mL aliquot of the specimen 100 previously mixed with culture media and incubated is obtained. Using optical density measurements as a guide, the specimen 100 is diluted to 0.5 McFarland.
Antimicrobial exposure plates are typically placed into an incubator for 12-16 hours.
Nucleic Acid Amplification of Antimicrobial Agent Exposed Pathogens. The antimicrobial exposure plate is removed after the period of incubation. The specimen then undergoes a purification or lysis step. For example, the specimen may undergo a purification step (e.g., magnetic bead-based or other separation protocol to isolate genetic material). In another example, the specimen may undergo a cell lysis step. For example, buffer (e.g., lysis buffer) may be added and incubated in the thermal cycler for preparation for direct PCR. Next, the specimen may undergo a polymerase chain reaction (PCR) testing protocol, whereby a semi-quantitative PCR method is utilized. This may be completed either with or without a specific extraction protocol step. The pathogens can be individually targeted and detected, or a universal genetic sequence can be utilized to detect the antimicrobial susceptibility of the specimen as a whole.

Q: For CO/N=C(\C(=O)N[C@@H]1C(=O)N2C(C(=O)[O-])=C(C[N+]3(C)CCCC3)CS[C@H]12)c1csc(N)n1 [Cefepime], which “Traditional Culture Result” value [1] is on record?
A: Sensitive

Q: And the “Traditional Culture Result” value ([2]; S. epidermidis isolate 1)?
A: Resistant

Q: And the “Traditional Culture Result” value ([2]; S. epidermidis isolate 2)?
A: Resistant

Q: And the “Traditional Culture Result” value ([2]; S. epidermidis isolate 3)?
A: Resistant

Q: And the “Traditional Culture Result” value ([2]; S. epidermidis isolate 4)?
A: Resistant

Q: And the “Traditional Culture Result” value ([2]; S. epidermidis isolate 5)?
A: Resistant

Q: Which “Traditional Culture Result” value [3] does the source give for CO[C@@]1(NC(=O)Cc2cccs2)C(=O)N2C(C(=O)O)=C(COC(N)=O)CS[C@@H]21 [Cefoxitin] here?
A: Resistant

Q: What about the “Ct at Sensitive Breakpoint” value [4] of the same molecule?
A: 14.322

Q: And the “Molecular Antimicrobial Susceptibility Result” value [4]?
A: Resistant

Q: Which results are given for O=C(O)c1cn(C2CC2)c2cc(N3CCNCC3)c(F)cc2c1=O [Ciprofloxacin]?
A: Traditional Culture Result [3]: Resistant; Traditional Culture Result [1]: Resistant; Ct at Sensitive Breakpoint [4]: 18.586; Molecular Antimicrobial Susceptibility Result [4]: Resistant

Q: What does the source list for C[C@H]1COc2c(N3CCN(C)CC3)c(F)cc3c(=O)c(C(=O)O)cn1c23 [Levofloxacin]?
A: Ct at Sensitive Breakpoint [4]: 18.264; Molecular Antimicrobial Susceptibility Result [4]: Resistant

Q: How did the “Traditional Culture Result” value [1] turn out when C[C@@H](O)[C@H]1C(=O)N2C(C(=O)O)=C(S[C@@H]3CN[C@H](C(=O)N(C)C)C3)[C@H](C)[C@H]12 [Meropenem] was run?
A: Resistant*

Q: For O=C1CN(/N=C/c2ccc([N+](=O)[O-])o2)C(=O)N1 [Nitrofurantoin], which “Ct at Sensitive Breakpoint” value [4] is on record?
A: 31.922

Q: And the “Molecular Antimicrobial Susceptibility Result” value [4]?
A: Sensitive (Antimicrobial wells with pathogen load detected below the control wells (typically >2 cycle thresholds later) may be reported as Sensitive)

Q: With CN(C)[C@@H]1C(O)=C(C(N)=O)C(=O)[C@@]2(O)C(O)=C3C(=O)c4c(O)cccc4[C@@](C)(O)[C@H]3C[C@@H]12 [Tetracycline] as the molecule, how does the “Ct at Sensitive Breakpoint” value [4] read?
A: 18.43

Q: What about the “Molecular Antimicrobial Susceptibility Result” value [4] of the same molecule?
A: Resistant

Q: What does the source list for CN[C@H](CC(C)C)C(=O)N[C@H]1C(=O)N[C@@H](CC(N)=O)C(=O)N[C@H]2C(=O)N[C@H]3C(=O)N[C@H](C(=O)N[C@H](C(=O)O)c4cc(O)cc(O)c4-c4cc3ccc4O)[C@H](O)c3ccc(c(Cl)c3)Oc3cc2cc(c3O[C@@H]2O[C@H](CO)[C@@H](O)[C@H](O)[C@H]2O[C@H]2C[C@](C)(N)[C@H](O)[C@H](C)O2)Oc2ccc(cc2Cl)[C@H]1O [Vancomycin]?
A: Traditional Culture Result [3]: Resistant; Traditional Culture Result ([2]; S. epidermidis isolate 1): Sensitive; Traditional Culture Result ([2]; S. epidermidis isolate 2): Sensitive; Traditional Culture Result ([2]; S. epidermidis isolate 3): Sensitive; Traditional Culture Result ([2]; S. epidermidis isolate 4): Sensitive; Traditional Culture Result ([2]; S. epidermidis isolate 5): Sensitive; Ct at Sensitive Breakpoint [4]: 17.078; Molecular Antimicrobial Susceptibility Result [4]: Resistant

Q: How did the “Traditional Culture Result” value [3] turn out when Gentamicin was run?
A: Resistant

Q: And the “Molecular Antimicrobial Susceptibility Result” value [4]?
A: Resistant

Q: Which “Traditional Culture Result” value [1] does the source give for Piperacillin/Tazobactam here?
A: Sensitive

Q: What does the source list for Trimethoprim/Sulfamethoxazole [TMP/SMX]?
A: Traditional Culture Result [3]: Sensitive; Traditional Culture Result ([2]; S. epidermidis isolate 1): Resistant; Traditional Culture Result ([2]; S. epidermidis isolate 2): Resistant; Traditional Culture Result ([2]; S. epidermidis isolate 3): Resistant; Traditional Culture Result ([2]; S. epidermidis isolate 4): Resistant; Traditional Culture Result ([2]; S. epidermidis isolate 5): Resistant; Ct at Sensitive Breakpoint [4]: 28.63; Molecular Antimicrobial Susceptibility Result [4]: Sensitive (Antimicrobial wells with pathogen load detected below the control wells (typically >2 cycle thresholds later) may be reported as Sensitive)
